The values that follow come from patent US20090232735A1, “USE OF FRUCTOSE-BASED THERAPIES FOR THE TREATMENT OF CANCER” (CEDARS-SINAI MEDICAL CENTER, priority 2005, published 2009).

SMILES strings stand for the structures.

In data set [1] the test system is fructokinase-1 (FK-1) mRNA. The data set can be described thus: Fructokinase-1 mRNA by RT-PCR in MCF-7 cells. The settings on record: MCF-7, 5 mM sugar, compared with 2 mM glucose. Format: cell-based, human. As for the experimental part: FIG. 7 depicts fructokinase-1 expression in accordance with an embodiment of the present invention. Breast cancer cells (MCF-7) express Fructokinase-1 (FK-1). RT-PCR was used to measure fructokinase-1 (FK-1) mRNA levels in MCF-7 cells following growth in 2 mM glucose, 5.5 mM glucose, or 5.5 mM fructose for 24 h, and in two human breast cancers (BT 1 & 2), and matched adjacent normal breast tissue (NB 1 & 2) from the same individual. […] Human liver, and exclusion of template served as positive and negative controls.
The inventors used RT-PCR analysis and specific primer pairs (SEQ ID NO: 1 (3′[…]), SEQ ID NO: 2 (5′[…])) to examine fructokinase-1 (FK-1) mRNA levels in glucose- or fructose-treated breast cancer cells. […] Also examined were FK-1 mRNA levels in two surgically resected human breast cancers, and paired adjacent normal breast tissue from the same individual. FK-1 mRNA was detectable in both normal and tumor tissue.

Data set [2] has as its system MAPK pathway (pMEK, pRsk, pCREB) in MCF-7, and MDA-MB231 breast cancer cells. The data set can be described thus: Western blot of MAPK pathway in breast cancer cells. Format: cell-based, human. The procedure:
FIG. 11 depicts increased breast cancer phosphorylated-MEK, phosphorylated Rsk, and phosphorylated CREB in accordance with an embodiment of the present invention. MCF-7 breast cancer cells were incubated in 2 mM glucose, 5 mM glucose or 5 mM fructose for 24 hours, after which Western blot analysis on total protein lysates was employed to examine components of the MAP kinase pathway. […] Total MEK, Rsk, and CREB levels, and β-actin served as loading controls.
Although several signal transduction pathways are likely involved in the fructose-mediated enhanced breast cancer growth and while not wishing to be bound by any particular theory, the inventors believe that the MAP-kinase pathway is involved. The inventors have used Western blot analysis to examine the MAPK pathway in breast cancer cells incubated in 2 mM glucose, 5.5 mM glucose, and 5.5 mM fructose for 48 hours. […] Activation of MEK, and subsequently ERK results in phosphorylation of p90^Rsk, which leads to transcriptional activation of CREB and AP1, which bind to cAMP or AP1 response elements respectively, activating gene transcription and promoting cellular growth.
In general terms: A western blot detects proteins with antibodies after separation by electrophoresis.

For the next data set, the system named is transketolase (TKK). The data set is described as follows: Transketolase expression by Western blot in PANC-1 cells. In kind it is cell-based, human. As to conditions: PANC-1, 5.5 mM fructose, 24 h and 48 h. As for the experimental part:
FIG. 33 depicts Western blot analysis of transketolase expression in pancreatic cancer PANC-1 cells following incubation in 2 mM glucose (lanes 1 & 4), 5.5 mM glucose (lanes 2 & 5), and 5.5 mM fructose for 24 h, and 48 h, respectively, in accordance with an embodiment of the present invention. Quantitation of TKK protein levels is depicted in the lower panel.
The inventors believe that fructose-treatment of pancreatic cancer cells led to an increase in TKK-driven nucleic acid synthesis, and thus fructose-treatment would result in an increase in either PANC-1 TKK expression and/or activity in comparison to equivalent glucose concentrations. Western blot analysis on protein lysates derived from fructose-, and glucose-treated PANC-1 cells were performed (5.5 mM fructose, and glucose for 24, and 48 h as per previous protocol) using a specific TKK antibody, and compared TKK expression in the fructose-, and glucose-treated PANC-1 cells. […] After gentle mixing the absorbance of the mixture was measured at 10 min intervals for 2 h at 340 nm. Transketolase activity was then derived from the difference in absorbance at 10, and 80 minutes, and expressed as nmol/min/million cells. […] Pancreatic cancer proliferation rates were then measured using the MTS assay (FIG. 35).

Data set [3] relates to pancreatic cancer development. As to conditions: cited from earlier work.

Turning to `O=C(CO)[C@@H](O)[C@H](O)[C@H](O)CO` [fructose], the “FK-1 mRNA levels (RT-PCR)” value in data set [1] was “highest FK-1 levels”. Also, the phospho-MEK expression entry in data set [2] (5.5 mM fructose vs 5.5 and 2 mM glucose, MCF-7 and MDA-MB231) is recorded as “increased expression of phospho-MEK (pMEK)”. Further, the “phospho-Rsk and phospho-CREB” value in data set [2] (5.5 mM fructose, 24 h, vs 5.5 and 2 mM glucose) is “increased phospho-Rsk (pRsk), and phospho-CREB (pCREB)”. In addition, the “TKK levels higher than 5.5 mM glucose-treated cells” value in the data set with transketolase (TKK) is approximately 2 fold. In addition, the “relative risk of pancreatic cancer” value in data set [3] (high fructose intake, women with increased BMI (>25) or sedentary lifestyle) is given as 3.17. Moreover, the “increased risk of pancreatic cancer development” value in data set [3] (women reporting a high fructose-intake) is 57%.
